Reference: publication PMC3961306, “Comparison of the Cancer Gene Targeting and Biochemical Selectivities of All Targeted Kinase Inhibitors Approved for Clinical Use” (PLoS ONE, 2014)
Read-outs that look alike come from different tables or passages of the source.

Tested on: forty-four human cancer cell lines
Assay: Cell proliferation assay (ATPlite, 72 hours) in the 44 cell line Oncolines panel
Format: cell-based
Settings: for IC50: Homo sapiens
[1] = 769-P, cell line 769-P, read-out: cell panel IC50, 769-P
[2] = 786-0, cell line 786-0, read-out: cell panel IC50, 786-0
[3] = A 172, read-out: cell panel IC50, A-172, cell line A-172
[4] = A204, cell line A-204, read-out: cell panel IC50, A-204
[5] = A498, read-out: cell panel IC50, A-498, cell line A-498
[6] = A549, read-out: cell panel IC50, A-549, cell line A-549
[7] = A-375, cell line A375, read-out: cell panel IC50, A375
[8] = A-427, read-out: cell panel IC50, A-427, cell line A-427
[9] = ACHN, cell line ACHN, read-out: cell panel IC50, ACHN
[10] = AN3-CA, cell line AN3 CA, read-out: cell panel IC50, AN3 CA
[11] = AU565, read-out: cell panel IC50, AU-565, cell line AU-565
[12] = BT-20, cell line BT-20, read-out: cell panel IC50, BT-20
[13] = BT-549, read-out: cell panel IC50, BT-549, cell line BT-549
[14] = BXPC-3, cell line BxPC-3, read-out: cell panel IC50, BxPC-3
[15] = C-33-A, cell line C-33 A, read-out: cell panel IC50, C-33 A
[16] = CAL-27, cell line CAL 27, read-out: cell panel IC50, CAL 27
[17] = CCRF-CEM, cell line CCRF-CEM, read-out: cell panel IC50, CCRF-CEM
[18] = DLD-1, cell line DLD-1, read-out: cell panel IC50, DLD-1
[19] = FaDu, cell line FaDu, read-out: cell panel IC50, FaDu
[20] = HCT-15, cell line HCT-15, read-out: cell panel IC50, HCT-15
[21] = HCT-116, read-out: cell panel IC50, HCT-116, cell line HCT-116
[22] = Hs-578T, cell line Hs 578T, read-out: cell panel IC50, Hs 578T
[23] = Jurkat E6.1, cell line Jurkat E6.1, read-out: cell panel IC50, Jurkat E6.1
[24] = K562, read-out: cell panel IC50, K-562, cell line K-562
[25] = LS174T, read-out: cell panel IC50, LS 174T, cell line LS 174T
[26] = LoVo, cell line LoVo, read-out: cell panel IC50, LoVo
[27] = MG-63, cell line MG-63, read-out: cell panel IC50, MG-63
[28] = MOLT-4, cell line MOLT-4, read-out: cell panel IC50, MOLT-4
[29] = MeWo, cell line MeWo, read-out: cell panel IC50, MeWo
[30] = NCI-H82, cell line NCI-H82, read-out: cell panel IC50, NCI-H82
[31] = NCI-H460, cell line NCI-H460, read-out: cell panel IC50, NCI-H460
[32] = OVCAR-3, cell line OVCAR-3, read-out: cell panel IC50, OVCAR-3
[33] = RPMI-7951, cell line RPMI-7951, read-out: cell panel IC50, RPMI-7951
[34] = SHP77, cell line SHP-77, read-out: cell panel IC50, SHP-77
[35] = SK-N-AS, cell line SK-N-AS, read-out: cell panel IC50, SK-N-AS
[36] = SW48, cell line SW48, read-out: cell panel IC50, SW48
[37] = SW480, cell line SW480, read-out: cell panel IC50, SW480
[38] = SW-620, cell line SW620, read-out: cell panel IC50, SW620
[39] = U2OS, cell line U-2 OS, read-out: cell panel IC50, U-2 OS
[40] = U-87 MG, 72 h, U-87 MG cell line, ATPlite, 72 hours, read-out: IC50 in cell proliferation assay (table S5 cellpanel data)
[41] = cell line J82, read-out: cell panel IC50, J82
[42] = cell line PA-1, read-out: cell panel IC50, PA-1
[43] = cell line SJCRH30, read-out: cell panel IC50, SJCRH30
[44] = cell line SR, read-out: cell panel IC50, SR

`CC[C@]1(O)C[C@H]2CN(CCc3c([nH]c4ccccc34)[C@@](C(=O)OC)(c3cc4c(cc3OC)N(C=O)[C@H]3[C@@](O)(C(=O)OC)[C@H](OC(C)=O)[C@]5(CC)C=CCN6CC[C@]43[C@@H]65)C2)C1` [vincristine] showed an IC50 [1] of 13 nM, an IC50 [2] of 42 nM and an IC50 [3] of 5.3 nM. It also gave an IC50 [4] of 13 nM, an IC50 [5] of 20 nM and an IC50 [6] of 24 nM. For the same compound, the IC50 [7] was 5.46 nM, the IC50 [8] was 2.27 nM and the IC50 [9] was 54 nM. The IC50 [10] was 1.29 nM, the IC50 [11] was 3.21 nM and the IC50 [12] was 6 nM. The IC50 [13] was 2.73 nM, the IC50 [14] was 9 nM and the IC50 [15] was 4 nM. It also gave an IC50 [16] of 2.78 nM, an IC50 [17] of 3.26 nM and an IC50 [18] of 61 nM. It also gave an IC50 [19] of 8 nM, an IC50 [20] of 66 nM and an IC50 [21] of 5 nM. It also gave an IC50 [22] of 2.48 nM, an IC50 [23] of 2.85 nM and an IC50 [24] of 3.19 nM. The IC50 [25] was 5 nM, the IC50 [26] was 10 nM and the IC50 [27] was 3.53 nM. It also gave an IC50 [28] of 1.54 nM, an IC50 [29] of 8.43 nM and an IC50 [30] of 4.29 nM. It also gave an IC50 [31] of 35 nM, an IC50 [32] of 3.58 nM and an IC50 [33] of 2.24 nM. For the same compound, the IC50 [34] was 183 nM, the IC50 [35] was 2.3 nM and the IC50 [36] was 4.22 nM. For the same compound, the IC50 [37] was 7 nM, the IC50 [38] was 4.73 nM and the IC50 [39] was 22 nM. The IC50 [40] was 4.4 nM, the IC50 [41] was 28 nM and the IC50 [42] was 1.67 nM. The IC50 [43] was under 1 nM and the IC50 [44] was under 1 nM.

Work on `CC(=O)O[C@@]12CO[C@@H]1C[C@H](O)[C@@]1(C)C(=O)[C@H](O)C3=C(C)[C@@H](OC(=O)[C@H](O)[C@@H](NC(=O)OC(C)(C)C)c4ccccc4)C[C@@](O)([C@@H](OC(=O)c4ccccc4)[C@H]21)C3(C)C` [docetaxel] yielded an IC50 [1] of 10 nM, an IC50 [2] of 17 nM and an IC50 [3] of 3.25 nM. For the same compound, the IC50 [4] was 3 nM, the IC50 [5] was 13 nM and the IC50 [6] was 2.14 nM. For the same compound, the IC50 [7] was 5.52 nM, the IC50 [8] was 3.5 nM and the IC50 [9] was 21 nM. The IC50 [10] was 0.902 nM, the IC50 [11] was 2.22 nM and the IC50 [12] was 9 nM. The IC50 [13] was 2.85 nM, the IC50 [14] was 3.35 nM and the IC50 [15] was 2.85 nM. It also gave an IC50 [16] of 1.64 nM, an IC50 [17] of 6.45 nM and an IC50 [18] of 23 nM. It also gave an IC50 [19] of 1.18 nM, an IC50 [20] of 58 nM and an IC50 [21] of 2 nM. It also gave an IC50 [22] of 2.13 nM, an IC50 [23] of 2 nM and an IC50 [24] of 2.68 nM. It also gave an IC50 [25] of 2.22 nM, an IC50 [26] of 8 nM and an IC50 [27] of 1.08 nM. For the same compound, the IC50 [28] was 1.74 nM, the IC50 [29] was 2.63 nM and the IC50 [30] was 1.37 nM. For the same compound, the IC50 [31] was 5.57 nM, the IC50 [32] was 4 nM and the IC50 [33] was 1.9 nM. The IC50 [34] was 138 nM, the IC50 [35] was 3.37 nM and the IC50 [36] was 3.39 nM. The IC50 [37] was 3.34 nM, the IC50 [38] was 2.25 nM and the IC50 [39] was 7.41 nM. It also gave an IC50 [40] of 11 nM, an IC50 [41] of 15 nM and an IC50 [42] of 0.943 nM. The IC50 [43] was 2.45 nM and the IC50 [44] was 2.17 nM.

In the case of `CC(C)C[C@H](NC(=O)[C@H](Cc1ccccc1)NC(=O)c1cnccn1)B(O)O` [bortezomib], the “Difference between the average IC50 in the cell panel and the most potent IC50” value (44 cell line panel, Figure 2D) is reported as 10 fold, the IC50 [1] is reported as 18 nM and the IC50 [2] is reported as 15 nM. For the same compound, the IC50 [3] was 4.63 nM, the IC50 [4] was 2090 nM and the IC50 [5] was 6 nM. The IC50 [6] was 9 nM, the IC50 [7] was 13 nM and the IC50 [8] was 11 nM. The IC50 [9] was 10 nM, the IC50 [10] was 13 nM and the IC50 [11] was 18 nM. The IC50 [12] was 64 nM, the IC50 [13] was 245 nM and the IC50 [14] was 28 nM. The IC50 [15] was 14 nM, the IC50 [16] was 6 nM and the IC50 [17] was 10 nM. It also gave an IC50 [18] of 19 nM, an IC50 [19] of 21 nM and an IC50 [20] of 31 nM. For the same compound, the IC50 [21] was 221 nM, the IC50 [22] was 5.28 nM and the IC50 [23] was 18 nM. For the same compound, the IC50 [24] was 16 nM, the IC50 [25] was 10 nM and the IC50 [26] was 6 nM. It also gave an IC50 [27] of 5.68 nM, an IC50 [28] of 8 nM and an IC50 [29] of 11 nM. It also gave an IC50 [30] of 28 nM, an IC50 [31] of 85 nM and an IC50 [32] of 79 nM. It also gave an IC50 [33] of 7 nM, an IC50 [34] of 66 nM and an IC50 [35] of 6 nM. For the same compound, the IC50 [36] was 10 nM, the IC50 [37] was under 3.16 nM and the IC50 [38] was 4 nM. For the same compound, the IC50 [39] was 53 nM, the IC50 [40] was 10 nM and the IC50 [41] was 11 nM. The IC50 [42] was 4.74 nM, the IC50 [43] was 27 nM and the IC50 [44] was 12 nM.
